What was measured:
panelists = experiment: Determination of the sucrose equivalence using a comparative series of sucrose concentrations in water; format: in vivo, human; conditions: concentration used in preparation C (1 ppm), method of Application example 1, first part
Excerpt: The sucrose equivalence ratio of the sucrose equivalence of the concentration of the substances or substance of group (i) to the sucrose equivalence of the concentration of the substance or substances of group (ii) in the corresponding flavoring mixture (and in other mixtures, cf. further below), is established as follows: • 1. A comparative series of different sucrose concentrations in water is produced. Preferred concentrations are 0; 0.25; 0.5; 0.75; 1; 1.5; 2; 3; 4 and 5% by weight sucrose in water. Other concentrations, in particular higher concentrations, can optionally also be used for the comparative series. • 2. […] The determined sucrose equivalence is produced from the average of individual gradings by the individual panelists. • 6. The dilution ratio is then determined, using which solution 1 can be set at a sucrose equivalence of 2% by weight sucrose in water. […] It is of course sensible to have the determined dilution ratio tested once more by the panelists. • 7. Solution 2 (containing the compound(s) of group (ii)) is then diluted in the dilution ratio determined under 6. • 8. Subsequently, the dilute solution 2 is also tasted and compared to the sucrose test series, graded by the panelists and a corresponding sucrose equivalence value is determined (analogously to points 4. and 5.). • 9. […]

[1] = Stability of phyllodulcin content under elevated thermal stress (HPLC, UV detection); format: physicochemical; conditions: 100 mg/l phyllodulcin in aqueous phosphate buffer pH 9, stored at 40° C., compared to the same quantity as extract
Method: The exemplary extract was tested for stability under an elevated thermal stress in comparison to pure phyllodulcin. A solution of 100 mg/l of phyllodulcin and 1.38% of the exemplary ethanolic extract (corresponds to 100 mg of phyllodulcin) in an aqueous phosphate buffer, adjusted to pH 9, was tested immediately after preparation and then at regular weekly intervals for its phyllodulcin content. In this respect, an aliquot of the respective test solution was separated in an HPLC installation (RP phase) and quantified by UV detection compared to a calibration with pure phyllodulcin. The samples were stored at 40° C. in closed glass vessels to prevent evaporation. The phyllodulcin contents of the test solutions are plotted against time in FIG. 1.

| Compound | sucrose equivalence alone in water (panelists) | Decomposition of phyllodulcin over time (FIG. 1) [1] |
| --- | --- | --- |
| COc1ccc(CCC(=O)c2c(O)cc(O[C@@H]3O[C@H](CO)[C@@H](O)[C@H](O)[C@H]3O[C@@H]3O[C@@H](C)[C@H](O)[C@@H](O)[C@H]3O)cc2O)cc1O [neohesperidin dihydrochalcone] | approximately 0.5% |  |
| COc1ccc([C@H]2Cc3cccc(O)c3C(=O)O2)cc1O [phyllodulcin] |  | decomposed more rapidly |

— US10869493B2, “Reduced-sweetener products, flavoring mixtures for said reduced-sweetener products and process for the production of products of this type” (SYMRISE AG, priority 2009, dated 2020)
